Reference: a melting point compilation (Tetko et al.)

Row | Structure (SMILES) | melting point
1 | ClC1=C(Cl)C2(Cl)C3C4OC4(Cl)C(Cl)C3C1(Cl)C2(Cl)Cl (stereo unspecified) | 144 °C
2 | CCOC(=O)C(CCc1ccccc1)NC(C)C(=O)N1C(=O)N(C)CC1C(=O)O (stereo unspecified) | 139 °C
3 | CS(=O)(=O)c1ccccc1S(=O)(=O)Cl | 133 to 138 °C
4 | CC(=O)OCOC(=O)C1N2C(=O)C(NC(=O)Cc3ccccc3)C2SC1(C)C (stereo unspecified) | 107 °C
5 | CC1C(NC(=O)C(=NOC(C)(C)C(=O)O)c2csc(N)n2)C(=O)N1S(=O)(=O)O (stereo unspecified) | 277 °C
6 | N#CC1(c2ccc(F)cc2Cl)CCCC1 | 49 to 52 °C
7 | OCc1ccccc1Cc1ccccc1 | 37 to 41 °C
8 | S=C=Nc1ccc(Cl)c(Cl)c1Cl | 69.5 °C
9 | C=C(C(=O)O)C1CCC2C(=CCC3C(C)(C)C(O)CCC23C)C1 (stereo unspecified) | 218 °C
10 | CCN(CC)C(=O)C1C=C2c3cccc4[nH]cc(c34)CC2N(C)C1 (stereo unspecified) | 82.5 °C
11 | N#C/C(=N/Nc1ccccc1)c1nc(-c2ccc(Cl)cc2)cs1 | 178 °C
12 | BrC(c1ccccc1)C(Br)c1ccccc1 (stereo unspecified) | 239 °C
13 | O=C(c1ccccc1)c1ccccc1NC(=O)[C@@H]1CCCN1Cc1ccccc1 | 100 to 103 °C
14 | O=S(=O)(Cl)c1ccc(C(F)(F)F)cc1 | 31 °C
15 | CC1C=C(CO)N=N1 (stereo unspecified) | 79 °C
16 | FC(F)C(F)(F)Cl | -117 °C
17 | COc1cc(C(=O)O)c([N+](=O)[O-])c(OC)c1OC | 166 to 169 °C
18 | O=C(O)c1ccc2c(c1)OC(F)(F)O2 | 156 °C
19 | Oc1ccnc2cc(Cl)ccc12 | 280 °C
20 | Cc1c(Cl)cccc1S(=O)(=O)Cl | 71 to 73 °C
21 | O=[N+]([O-])c1cc([N+](=O)[O-])c(/C(Cl)=C\c2ccccc2)cc1C(Cl)=Cc1ccccc1 | 146 °C
22 | O=C1NN=C(C(F)(F)F)C1=NNc1ccccc1 | 186 °C
23 | Clc1cn2ccsc2n1 | 85 °C
24 | O=C(O)c1ccc(Cl)cc1[N+](=O)[O-] | 144 °C
25 | COc1ccc2c(C(=O)c3ccc(Cl)cc3)c(C)n(CC(=O)O)c2c1 | 242 °C

Row | Structure (SMILES) | melting point
26 | CCOC(=O)C(=O)c1ccc(Br)s1 | 70 to 71 °C
27 | CCCC(=O)c1c(C)cc(C)c(C2CC(=O)C(C(CC)=NOCC)=C(O)C2)c1C (stereo unspecified) | 80.8 °C
28 | CC(=O)c1ccc[nH]1 | 90 °C
29 | Cc1noc(-c2ccccc2)c1C(=O)O | 190 to 191 °C
30 | CCOc1cc2c(cc1OCC)C(CC(=O)O)NCC2 (stereo unspecified) | 259 to 260 °C
31 | c1ccc(-c2nc3ccccc3nc2-c2ccc3ccccc3c2)cc1 | 121 to 122 °C
32 | CC(=O)Nc1ccccc1/C=C/c1cc(C)c([N+](=O)[O-])cc1[N+](=O)[O-] | 252 °C
33 | COc1cc(C(C)=O)cc(OC)c1OC | 81 °C
34 | CCOC(=O)CC(=O)C=P(c1ccccc1)(c1ccccc1)c1ccccc1 | 101 to 106 °C
35 | OC(c1ccccc1)C(O)(c1ccccc1)c1ccccc1 (stereo unspecified) | 163 °C
36 | NC(=O)/C(=N\Nc1ccc(O)cc1)c1nc2ccccc2s1 | 160 °C
37 | CCS(=O)(=O)c1ccccc1 | 42 °C
38 | c1ccc(-c2nc3ccccc3nc2-c2cccc3ccccc23)cc1 | 138 °C
39 | Nc1cc(-c2ccco2)[nH]n1 | 126 °C
40 | O=Cc1ccc(-c2ccc(C(F)(F)F)cn2)cc1 | 91 to 93 °C
41 | CCOC(=O)C=Cc1cccc(C=CC(=O)OCC)c1 | 53.5 °C
42 | O=C(O)c1ccccc1S | 164 to 169 °C
43 | CC1=NN(c2ccc(Cl)cc2Cl)C(=O)C1C(Cl)C1(Cl)C(=O)N(c2ccc(Cl)cc2Cl)N=C1C (stereo unspecified) | 110 to 120 °C
44 | CC(=O)Nc1ccc(OCC(O)CNC(C)C)cc1 (stereo unspecified) | 135 °C
45 | N#Cc1ccc(Br)cc1F | 71 °C
46 | CC(=Nc1ccc(N=Nc2ccccc2)cc1)c1c(O)c2ccccc2n(-c2ccccc2)c1=O | 191 °C
47 | CNC(=O)Oc1ccc(C)c(C)c1 | 79.5 °C
48 | O=C(O)c1cc2ccccn2n1 | 189 to 192 °C
49 | CC1CC(=O)c2c(F)c(F)cc3c(=O)c(C(=O)O)cn1c23 (stereo unspecified) | 323 to 325 °C
50 | CC(=O)CC(=O)O | 36.5 °C

Row | Structure (SMILES) | melting point
51 | ClCc1ccccc1Cn1cncn1 | 52 to 57 °C
52 | Cc1noc(-c2ccc(CO)cc2)n1 | 102 to 104 °C
53 | BrCc1cccc2cccnc12 | 81 to 82 °C
54 | Nc1ccccc1S(=O)(=O)c1ccccc1 | 118 to 122 °C
55 | O=C1C=C(NCNc2ccccn2)C(=O)c2ccccc21 | 134 to 136 °C
56 | Cc1noc(C)c1N | 52 to 54 °C
57 | O=[N+]([O-])c1cc([N+](=O)[O-])c(Cl)cc1Cl | 101 °C
58 | O=C(Cn1ccnc1[N+](=O)[O-])NCc1ccccc1 | 189 °C
59 | O=C1C=C(Nc2ccccc2)C(=O)c2ccccc21 | 193 °C
60 | Nc1ccc(Cn2cccn2)cc1 | 67 to 69 °C
61 | C=CCc1cc(C(C)=O)ccc1O | 115 to 118 °C
62 | CC(=O)c1ccc(F)cc1O | 31.5 °C
63 | CCCCCCC(=O)OCCC | -63.5 °C
64 | CCN(CCO)S(=O)(=O)C(F)(F)C(F)(F)C(F)(F)C(F)(F)C(F)(F)C(F)(F)C(F)(F)C(F)(F)F | 55 to 60 °C
65 | CCCC(C)(COC(N)=O)COC(N)=O | 104 °C
66 | CC(C)COC(=O)c1ccccc1C(=O)OCC(C)C | -64 °C
67 | Brc1ccc(Oc2ccccc2Br)cc1Br | < 20 °C
68 | COc1ccc(C(=O)NNC(=O)c2cccc3ccccc23)cc1 | 189 °C
69 | Cc1ccc(S(C)(=O)=O)cc1 | 88 °C
70 | Nn1c(S)nnc1C(F)(F)F | 141 °C
71 | OC1Cc2cccc3cccc1c23 (stereo unspecified) | 148 °C
72 | Oc1ccc(O)c(C=NCCN=Cc2cc(O)ccc2O)c1 | 125 to 127 °C
73 | COc1cc(C(N)=O)cc(OC)c1OC | 179 °C
74 | Cc1c(C(=O)O)nnn1Cc1ccccc1 | 170 to 171 °C
75 | Nc1nnc(Cc2ccccc2)[nH]1 | 171 to 173 °C

Row | Structure (SMILES) | melting point
76 | CCCCC(CC)CO[N+](=O)[O-] (stereo unspecified) | 75 °C
77 | Cc1ccccc1OC(=O)Oc1ccccc1C | 60 °C
78 | CC(=O)C1=CCCCC1 | 73 °C
79 | Cc1ccnc(Cl)c1N | 66 °C
80 | N#CC=Cc1ccco1 | 38 °C
81 | O=S(=O)(Oc1ccc(Cl)cc1)c1ccc(Cl)cc1 | 86.5 °C
82 | CC(=O)c1cccc(Cl)c1O | 80 to 83 °C
83 | O=C(CCl)c1cc(C(=O)CCl)c([N+](=O)[O-])cc1[N+](=O)[O-] | 148 °C
84 | O=S(=O)(Cl)Cc1ccc(F)cc1 | 61 to 63 °C
85 | N#Cc1cc(F)c(N)cc1F | 95 to 97 °C
86 | CCOC=C(C#N)S(=O)(=O)C(C)(C)C | 103 to 105 °C
87 | c1ccc(OCc2nnc3n2NC(c2ccco2)S3)cc1 (stereo unspecified) | 102 °C
88 | O=[N+]([O-])c1coc2ccc(O)cc12 | 164 to 165 °C
89 | Cc1cc(O)cc(C)c1C | 106 °C
90 | COc1cc(C(N)=O)cc(Cl)n1 | 186 °C
91 | CC(C)CN1C(=O)N2CCc3ccccc3C2(c2ccc(Cl)cc2)C1=O (stereo unspecified) | 120 to 121 °C
92 | O=C1OC(=O)C23CC4=C(CC=CC4)CC12CC1=C(CC=CC1)C3 (stereo unspecified) | 220 to 247 °C
93 | CC=CCCl | -65 °C
94 | O=[N+]([O-])c1ccc(C(Cl)C(Cl)c2cccc(C(Cl)C(Cl)c3ccc([N+](=O)[O-])cc3[N+](=O)[O-])c2)c([N+](=O)[O-])c1 (stereo unspecified) | 90 to 108 °C
95 | O=[N+]([O-])c1ccccc1C(O)C(O)c1ccccc1 (stereo unspecified) | 100 °C
96 | COc1ccc(C(=O)C=Cc2ccc(-c3ccccc3[N+](=O)[O-])o2)cc1OC | 119 to 120 °C
97 | Ic1ccc(Cn2cncn2)cc1 | 82 to 84 °C
98 | CCOC(=O)c1c(-c2ccc(-c3ccccc3)cc2)csc1N | 155 to 157 °C
99 | Cc1ccc(/N=N/c2c(N)nn3c(C)cc(=O)[nH]c23)cc1 | 285 °C
100 | O=C1OC(c2ccccc2)=N/C1=C/c1ccc(-c2ccccc2[N+](=O)[O-])o1 | 210 °C

Row | Structure (SMILES) | melting point
101 | COc1ccc(-c2nnc3n2NC(c2ccccc2OC)S3)cc1 (stereo unspecified) | 166 °C
102 | CCCCC(C=O)NC(=O)C(CC(C)C)NC(=O)OCc1ccccc1 (stereo unspecified) | 60 to 75 °C
103 | NC(=S)c1ccc(OCC(F)(F)F)nc1 | 120 to 123 °C
104 | O=C(/C(=N/Nc1ccc(Cl)cc1Cl)S(=O)(=O)c1ccccc1)c1cccc2ccccc12 | 162 °C
105 | CC(C)(C)c1cnc(C(=O)Nc2cc(C(F)(F)F)cc(C(F)(F)F)c2)cn1 | 136 °C
106 | Nc1nnc(C(F)(F)F)s1 | 224 °C
107 | CCOC(=O)Cc1ccc(N)cc1 | 48 to 50 °C
108 | O=C1/C(=N\Nc2cc(-c3ccccc3)n[nH]2)C(C(F)(F)F)=NN1c1ccccc1 | 280 °C
109 | COc1cc2cc[nH]c2cc1OC | 157 °C
110 | O=Cc1ccc(-c2cccnc2)cc1 | 55 °C
111 | Oc1c(-c2ccccc2)cccc1-c1ccccc1 | 102 °C
112 | Cc1cc(O)nc2ccccc12 | 226 °C
113 | CC12CCC3C(CCC(CC(=O)O)C3(C)CC(=O)O)C1CCC2=O (stereo unspecified) | 223 to 224 °C
114 | O=[N+]([O-])c1ccc(Br)nc1 | 138 °C
115 | O=Cc1cccn1-c1cc(Cl)cc(Cl)c1 | 150 to 152 °C
116 | CCOC(=O)c1cn2nc(Cl)ccc2n1 | 156 to 157 °C
117 | COc1ccc(-c2ccccc2)cc1NC(=O)C(F)(F)C(F)(F)C(F)(F)C(F)(F)C(F)(F)C(F)(F)C(F)(F)C(F)(F)F | 118 °C
118 | C=CCSc1nc(=O)[nH]c2c1CCCC2 | 207 to 209 °C
119 | CC1C(=O)C23C(O)CC4C(C)(CO)CCCC4(CO)C2C(O)CC1C3O (stereo unspecified) | 266 °C
120 | OC[C@@H](O)COCc1ccccc1 | 24 to 27 °C
121 | O=C(Nc1cccc(N=Nc2cccc(NC(=O)c3ccccc3)c2)c1)c1ccccc1 | 285 °C
